Experimental data: patent US6252094A (The Scripps Research Institute, priority 1999, dated 2001)

Assays:
[1] = Octanol/water partition coefficient by HPLC
Procedure: (§1) The solubility and partition coefficient data for 2 and taxol were determined using an HPLC method.
(§2) Solubility was found by forming a solution in water with the aid of sonication for five minutes, centrifugation of the samples, and injection of the supernatant. The values reported were normalized using calibration curves constructed for both compounds by preparing known concentrations in the range 1×10^-6 to 1×10^-3 M in methylene chloride and subjecting to HPLC analysis under the same conditions. […] Partition coefficients were determined by dissolving the compound in the organic phase, shaking the resulting solution with water for ten minutes, and analyzing each phase by HPLC as above.

[2] = system: tubulin; assay: Microtubule polymerization-depolymerization measurements (turbidity at 340 nm); assay type: biochemical; conditions: for suppression of calcium chloride promoted depolymerization: 10^-6 M drug, 1.0 mg/mL tubulin, 0.25 mM CaCl2, 37° C.
Procedure: Tubulin polymerization-depolymerization measurements are illustrate in FIG. 3. Negative controls are shown with triangles; positive taxol controls are shown with diamonds; and taxol-2'-MPT, i.e., compound 2 is shown with dots.
More particularly, measurement were performed in 96 well plates at 37° C. following the protocol of R. Merlock and W. Wrasidlo (Analytical Biochemistry 1993, in press). Calcium chloride addition is indicated by the arrow. In each case, 1.0 mM GTP was used to promote the initial polymerization of tubulin. Negative control employed tubulin (1.0 mg/mL) alone, CaCl2 (0,25 mM) added after 20 minutes. Positive taxol control employed tubulin (1.0 mg/mL) with taxol (10^-6 M) and CaCl2 (0.25 mM) added after 20 minutes. The experimental taxol-2'-MPTemployed tubulin (1.0 mg/mL) with taxol-2'-MPT (10^-6) and CaCl2 (0.25 mM) added after 20 minutes. Turbidity was measured as optical density at 340 nm using a microplate reader (Molecular Devices Thermomax).

[3] = background statement; cited from earlier work
[4] = system: albumin; conditions: sera; cited from earlier work
[5] = system: tubulin; conditions: background; cited from earlier work
[6] = system: human leukemia; assay: Cytotoxicity (XTT, 72 hours), human leukemia
Procedure: (§6) More particularly, cells were plated on 96 well plates with the following controls: no cells and toxic control (1×10^-3 M SDS). The drug was added to the first set of wells and diluted via standard dilution method from the stock. Plates were incubated at 37° C., 5% CO2 in sterile air in an humidified incubator for 72 hours. An aliquot of 50 L of a solution of 2,3-bis(methoxy-4-nitro-5-sulfophenyl)-5-[(phenylamino)carbonyl]-1H-tetrazolium hydroxide (XTT), 1 mg mL^-1, in phosphate buffered saline (PBS, 100 mM) was added to the wells. In the presence of viable cells, this colorless clear media is enzymatically altered to give a pink coloration. […] Percentage cytotoxicity was calculated using the formula: %C=1--(OD toxin)(OD growth control)^-1 (100).

[7] = system: cervical carcinoma; assay: Cytotoxicity (XTT, 72 hours), cervical carcinoma
Procedure: as §6

[8] = system: metastatic melanoma; assay: Cytotoxicity (XTT, 72 hours), metastatic melanoma
Procedure: as §6

[9] = Solubility in water by HPLC (sonication, centrifugation, injection of supernatant); assay type: physicochemical
Procedure: as §1, §2

[10] = Stability of taxol-2'-MPT by HPLC (solid state, aqueous media); assay type: physicochemical
Procedure: (§3) Due to a difference in retention time using our standard HPLC conditions (see FIG. 1) and differing ultraviolet absorption maxima (1280 /1254 =1.6 for 2 and 0.3 for 1), the stability of 2 was easily assayed by HPLC (FIG. 1). […] In phosphate buffered saline (PBS) or ammonium acetate--phosphate buffer systems of pH 6.0 to 7.3, 2 is stable at 25° C. for over 21 days. Taxol-2'-MPT (2) is, however, unstable in 5% HCl (pH 1.1) and brine.

[11] = Stability/kinetics of taxol release from taxol-2'-MPT in plasma; assay type: in vitro ADME, human
Procedure: as §3
(§4) Under these conditions 20% of total is recovered. More particularly, Taxol-2'-MPT (2) was dissolved in the aqueous system with the aid of sonication for five minutes. Aliquots were then removed at the times shown and partitioned into methylene chloride to quench the reaction. Samples were then analyzed using a Waters Maxima HPLC instrument equipped with an autoinjector (3.9×300 mm C18 column equipped with a precolumn. The flow rate was 1.5 mL/minute. The eluent gradient A-B extended over 30 minutes. "A" was 80% 80 mM ammonium acetate, pH 6.0. "B" was 100% methanol. An ultraviolet diode array detector was employed. The ratio of compound 2 (Rf 16.2 min.) to taxol (compound 1, Rf 16.8 min.) remaining was determined from the relative areas of the peaks after normalization with previously determined calibration curves.

[12] = Kinetics of taxol release from taxol-2'-MPT in aqueous solutions at 25° C.; assay type: physicochemical; conditions: sterile water, pH 6.2 PBS or 5% dextrose, over 11 minutes
Procedure: as §4

[13] = Self-assembly: optical clarity, OD at 340 nm, TEM; assay type: physicochemical; conditions: for morphology of self-assembled structures in buffered solutions: 1 mM in 100 mM PBS
From the text: Transmission electron microscopy (TEM) confirmed the presence of supramolecular structures in these solutions. […] It is likely that the long term stability of these solutions is due, at least in part, to stabilization provided by this structured environment.

[14] = system: serum protein; assay: Displacement of MPT group by serum protein
From the text: (§5) However, the release of taxol from taxol-2'-MPT can also be catalyzed by serum protein and by proteins having nucleophilic groups. […] Dialysis of the protein:taxol intermediate indicates a dissociation period of hours or days. Displacement of the MPT group by serum proteins seems to be specific for such serum proteins. […] The precise nature of the bonding between the protein and taxol has not been characterized. Scheme 2 illustrates alternative pathways for MPT release.

[15] = system: immunoglobulins; assay: Displacement of MPT group by immunoglobulins
From the text: as §5

[16] = system: serum albumen; assay: Displacement of MPT group by serum albumin
From the text: as §5

[17] = system: non-serum proteins; assay: Displacement of MPT group by non-serum proteins
From the text: as §5

[18] = system: A549 non-small cell lung adenocarcinoma; assay: Efficacy in lung tumor xenograft nude mouse model
Procedure: The tumor model was generated from an ATCC A549 non-small cell lung adenocarcinoma cell line that was maintained under the standard cell proliferation conditions (37° C., 5% carbon dioxide in sterile air). Hemocytometer counted cells suspended in Hanks medium (Gibco, Grand Island N.Y.) were implanted S.C.

[19] = water, 5% dextrose, 1.5% saline

SMILES: CC(=O)O[C@H]1C(=O)[C@@]2(C)[C@H]([C@H](OC(=O)c3ccccc3)[C@]3(O)C[C@H](OC(=O)[C@H](O)[C@@H](NC(=O)c4ccccc4)c4ccccc4)C(C)=C1C3(C)C)[C@]1(OC(C)=O)CO[C@@H]1C[C@@H]2O [taxol, reference compound]
- Partition Coefficient [octanol]/[water] [1]: > 10000
- suppression of calcium chloride promoted depolymerization [2]: suppressed by taxol
- microtubule stabilization by taxol recovered from human plasma treated with 2 ([2]; taxol recovered from plasma): exhibited the expected microtubule stabilization
- water solubility [3]: less than 1.5×10^-6 molar
- taxol binding to albumin [4]: ca. 85%
- effect of taxol binding on tubulin [5]: prevents its polymerization and the formation of microtubules
- cytotoxicity level, human leukemia [6]: Extremely high
- cytotoxicity level, cervical carcinoma [7]: Extremely high
- cytotoxicity level, metastatic melanoma [8]: Extremely high

SMILES: CC(=O)O[C@H]1C(=O)[C@@]2(C)[C@H]([C@H](OC(=O)c3ccccc3)[C@]3(O)C[C@H](OC(=O)[C@H](Oc4cccc[n+]4C)[C@@H](NC(=O)c4ccccc4)c4ccccc4)C(C)=C1C3(C)C)[C@]1(OC(C)=O)CO[C@@H]1C[C@@H]2O [taxol-2'-MPT]
- degradation during solubility and partition studies [9]: No degradation
- solubility compared with clinically relevant dosages (3 to 30 mM) ([9]; range of aqueous systems): higher than the clinically relevant dosages
- water solubility compared with parent taxol ([9]; relative to taxol): significantly more soluble in water than the parent taxol
- solubility ([9]; water, HPLC, table value): 1700 µM
- logP [1]: 1.7
- stability in 5% HCl and brine ([10]; 5% HCl (pH 1.1) and brine): unstable
- degradation products detected ([10]; HPLC): taxol and the pyridinone that results from hydrolysis of pyridinium salts
- stability period in buffer ([10]; PBS or ammonium acetate-phosphate buffer, pH 6.0 to 7.3, 25° C.): over 21 days
- stability in aqueous media (discussion) ([10]; aqueous media, physiological pH and ion strength): essentially completely stable
- stability in most aqueous media (discussion) ([10]; most aqueous media): remarkably stable
- onset of slow degradation [10, 19]: > 4 days
- stability in water, 5% dextrose, and 1.5% saline [10, 19]: stable for several days
- degradation in human plasma ([11]; human plasma, 37° C.): breaks down rapidly
- recovery ([11]; human, plasma, methylene chloride extraction, read-out: total recovered from plasma): 20%
- total recovered from plasma ([11]; plasma, methylene chloride extraction): 20%
- time to complete conversion of 2 into taxol in plasma ([11]; plasma, methylene chloride extraction, 25° C. per FIG. 1): ≤ 10 min
- discharge of taxol in sera ([11]; sera): rapidly discharges taxol in sera
- taxol release in aqueous media [12]: no taxol release is observed
- morphology of self-assembled structures in buffered solutions ([13]; TEM): self-assembled helical fibrous nanostructures
- morphology of self-assembled structures in buffered solutions ([13]; TEM, listed as 2): Uniform aggregates of fibrillar structure
- morphology of self-assembled structures in unbuffered solutions ([13]; 1 mM in H2O, TEM): self-assembled spherical nanostructures
- diameter of fibrillar aggregates ([13]; TEM): ca. 80 Å
- helical twist of aggregates ([13]; TEM): about 7
- length of fibrillar aggregates ([13]; TEM): up to 800 Å
- concentration above which haze is exhibited ([13]; buffered solutions): greater than 1×10^-3 M
- critical concentration (exponential increase in OD at 340 nm) ([13]; buffered solutions, 340 nm): 400 µM
- diameter of spherical structures ([13]; freshly sonicated solutions, TEM): about 50 Å
- optical appearance of water solutions ([13]; water, all concentrations examined): optically clear
- suppression of calcium chloride promoted depolymerization [2]: not by taxol-2'-MPT
- microtubule polymerization-depolymerization ([2]; GTP-saline controls and taxol as comparators): very similar to GTP-saline controls and drastically different from taxol
- effect on tubulin-microtubule equilibria ([2]; buffered aqueous assay): does not affect the tubulin-microtubule equilibria
- binding to tubulin ([2]; inferred from the polymerization assay): does not appear to bind to tubulin in the manner of taxol
- displacement of MPT group on contact with serum protein [14]: observed to displace its MPT group and form a protein:taxol intermediate
- effectiveness in displacing MPT group, immunoglobulins [15]: particularly effective
- effectiveness in displacing MPT group, serum albumin [16]: particularly effective
- MPT-displacing activity of non-serum proteins [17]: seemed to lack this activity
- cytotoxicity level, human leukemia [6]: Extremely high
- cytotoxicity level, cervical carcinoma [7]: Extremely high
- cytotoxicity level, metastatic melanoma [8]: Extremely high
- control of tumor growth ([18]; I.P. day 1, 3, 7, taxol 18.0 mg/kg, taxol-2'-MPT 23.9 mg/kg, preliminary data): at least comparable to that of taxol
- conversion to taxol in vivo ([18]; inferred from the xenograft results): converted rapidly to taxol in vivo
